Laboratory results taken from ChEMBL document CHEMBL2163299, “Cytotoxic effects of combination of oxidosqualene cyclase inhibitors with atorvastatin in human cancer cells” (J Med Chem, 2012).
The source made the active and inactive calls. The calls are words filed in the database; no cut-off is given here.

What was measured:
[1] = Chemical stability of compound at pH 4.0 after 24 hrs; type: physicochemical; conditions: buffer, pH 4, 24 h
[2] = Chemical stability of compound at pH 7.4 after 24 hrs; type: physicochemical; conditions: buffer, pH 7.4, 24 h
A549 = assay: Cytotoxicity against human A549 cells after 72 hrs by MTT assay; type: functional, cell-based; conditions: A549, 72 h
KB = assay: Cytotoxicity against human KB cells after 72 hrs by MTT assay; type: functional, cell-based
LNCaP = assay: Cytotoxicity against human LNCAP cells after 72 hrs by MTT assay; type: functional, cell-based
[3] = Cytotoxicity against human LNZ308 cells after 72 hrs by MTT assay; type: functional, cell-based; conditions: LNZ308, 72 h
[4] = Cytotoxicity against human Me300 cells after 72 hrs by MTT assay; type: functional, cell-based; conditions: Me300, 72 h
OVCAR = assay: Cytotoxicity against human OVCAR cells after 72 hrs by MTT assay; type: functional, cell-based
LN-18 [5] = assay: Inhibition of DNA synthesis in human LN18 cells assessed as inhibition of tritiated thymidine incorporation at 1 to 3 uM after 24 hrs by beta counting; type: functional, cell-based
LN-229 [6] = assay: Inhibition of DNA synthesis in human LN229 cells assessed as inhibition of tritiated thymidine incorporation at 1 to 3 uM after 24 hrs by beta counting; type: functional, cell-based
[7] = (§1) Cytotoxicity against human LN18 cells assessed as reduction in cell survival after 72 hrs by MTT assay; type: functional, cell-based; conditions: LN-18, 72 h
LN-18 [8] = assay: as §1; type: functional, cell-based
[9] = (§2) Cytotoxicity against human LN229 cells assessed as reduction in cell survival after 72 hrs by MTT assay; type: functional, cell-based; conditions: LN-229, 72 h
LN-229 [10] = assay: as §2; type: functional, cell-based
LN-18 [11] = assay: Cytotoxicity against human LN18 cells at 2 to 4 uM after 72 hrs by MTT assay in presence of atorvastatin; type: functional, cell-based
[12] = Cytotoxicity against human HCEC cells assessed as cell death at 4 to 10 uM after 72 hrs by MTT assay in presence of atorvastatin; type: cell-based
LN-229 [13] = assay: Cytotoxicity against human LN229 cells at 2 uM after 72 hrs by MTT assay in presence of atorvastatin; type: functional, cell-based
LN-229 [14] = assay: Induction of [14C]acetate incorporation in human LN229 cells at 2 uM after 24 hrs by Beta-counting in presence of 2.5 to 10 uM atorvastatin; type: functional, cell-based
LN-18 [15] = assay: Induction of [14C]acetate incorporation in human LN18 cells at 2 uM after 24 hrs by Beta-counting in presence of 2.5 to 10 uM atorvastatin; type: functional, cell-based
LN-229 [16] = assay: Induction of [14C]acetate incorporation in human LN229 cells at 2 uM after 24 hrs by Beta-counting; type: functional, cell-based
LN-18 [17] = assay: Induction of [14C]acetate incorporation in human LN18 cells at 2 uM after 24 hrs by Beta-counting; type: functional, cell-based
[18] = pampa, pH 6.5
Description: Permeability of compound at pH 6.5 assessed as compound binding to lipid membrane by PAMPA

Caco-2 = assay: cells; conditions: Homo sapiens, Caco-2, 72 h
Description: Cytotoxicity against human Caco2 cells after 72 hrs by MTT assay

HeLa = assay: cells; conditions: Homo sapiens, 72 h
Description: Cytotoxicity against human HeLa cells after 72 hrs by MTT assay

MCF7 = assay: cells; conditions: Homo sapiens, MCF7, 72 h
Description: Cytotoxicity against human MCF7 cells after 72 hrs by MTT assay

cells = conditions: Homo sapiens, HCEC, 72 h
Description: Cytotoxicity against human HCEC cells assessed as reduction in cell survival after 72 hrs by MTT assay

physchem = conditions: 1-octanol/TAPSO buffer, pH 7.4
Description: 1-Octanol-TAPSO buffer distribution coefficient, log D of the compound at pH 7.4 by shake-flask method

in vitro = conditions: pampa, pH 6.5
Description: Apparent permeability of compound at pH 6.5 by PAMPA

Lanosterol synthase = target: T1, Lanosterol synthase (Homo sapiens, UniProt P48449); assay: Inhibition of human liver microsome 2,3-OSC after 1 hr by Silica gel plate phosphor imaging
T1 sequence (P48449 whole entry): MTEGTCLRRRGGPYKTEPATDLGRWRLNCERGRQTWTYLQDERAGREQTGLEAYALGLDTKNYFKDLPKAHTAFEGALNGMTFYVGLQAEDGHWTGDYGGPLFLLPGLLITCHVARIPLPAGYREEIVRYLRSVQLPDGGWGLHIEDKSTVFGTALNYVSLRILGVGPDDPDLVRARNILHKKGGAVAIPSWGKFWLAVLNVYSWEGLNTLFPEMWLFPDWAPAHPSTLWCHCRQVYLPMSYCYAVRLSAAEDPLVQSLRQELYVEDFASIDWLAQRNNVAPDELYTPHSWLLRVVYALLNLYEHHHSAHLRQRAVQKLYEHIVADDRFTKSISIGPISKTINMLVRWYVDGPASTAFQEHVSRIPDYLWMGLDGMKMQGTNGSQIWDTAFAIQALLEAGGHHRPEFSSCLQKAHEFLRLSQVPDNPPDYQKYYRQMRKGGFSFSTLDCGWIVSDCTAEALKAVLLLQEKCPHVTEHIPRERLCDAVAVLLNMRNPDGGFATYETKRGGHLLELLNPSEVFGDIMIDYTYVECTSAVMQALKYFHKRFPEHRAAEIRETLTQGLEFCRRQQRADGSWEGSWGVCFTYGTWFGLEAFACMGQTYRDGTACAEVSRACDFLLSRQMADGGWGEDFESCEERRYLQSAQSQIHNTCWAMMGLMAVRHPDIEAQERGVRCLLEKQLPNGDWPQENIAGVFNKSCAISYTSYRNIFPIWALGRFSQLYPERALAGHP

LN-18 [19] = assay: Cytotoxicity against human LN18 cells after 72 hrs by MTT assay in presence of atorvastatin; type: functional, cell-based
LN-229 [20] = assay: Cytotoxicity against human LN229 cells at 4 to 10 uM after 72 hrs by MTT assay; type: functional, cell-based
LN-18 [21] = assay: Cytotoxicity against human LN18 cells at 2 to 10 uM after 72 hrs by MTT assay in presence of atorvastatin; type: functional, cell-based
[22] = Cytotoxicity against human HCEC cells at 2 to 10 uM after 72 hrs in by MTT assay in presence of atorvastatin; type: cell-based
[23] = Cytotoxicity against human LN229 cells assessed as decrease in cell survival at 2 uM after 72 hrs by MTT assay in presence of 2.5 uM atorvastatin; type: functional, LN-229
LN-229 [24] = assay: Cytotoxicity against human LN229 cells at 4 to 10 uM after 72 hrs by MTT assay in presence of atorvastatin; type: functional, cell-based
LN-229 [25] = assay: Cytotoxicity against human LN229 cells at 4 uM after 72 hrs by MTT assay in presence of atorvastatin; type: functional, cell-based
LN-18 [26] = assay: Inhibition of lipid synthesis in human LN18 cells assessed as [14C]acetate incorporation after 24 hrs by Beta-counting; type: functional, cell-based
LN-229 [27] = assay: Inhibition of lipid synthesis in human LN229 cells assessed as [14C]acetate incorporation after 24 hrs by Beta-counting; type: functional, cell-based

IC50 (HeLa) [µM] | IC50 (MCF7) [µM] | SMILES | Stability [1] | Stability [2] | IC50 (A549) [µM] | IC50 (KB) [µM] | IC50 (LNCaP) [µM] | IC50 [3] [µM] | IC50 [4] [µM] | IC50 (OVCAR) [µM] | inhibition (LN-18 [5]) | inhibition (LN-229 [6]) | IC50 [7] [µM] | Activity (LN-18 [8]) | IC50 [9] [µM] | permeability [18] [%] | IC50 (Caco-2) [µM] | IC50 (cells) [µM] | logD (physchem) | Papp (in vitro) [×10⁻⁶ cm/s] | also measured
2.69 | 25.7 | C=CCN(C)Cc1ccc(-c2ccc(C(=O)c3ccc(Br)cc3)cc2)cc1.Cl | Stable | Stable | 6.19 | 2.03 | 5.07 | 14.4 | 13.9 | > 30 | Active | Active | 2.3 | Dose-dependent effect | 17.9 | 58 | 3.81 | > 30 | 3.13 | 0.64 | IC50 (Lanosterol synthase): 0.008 µM; Activity (LN-229 [10]): Dose-dependent effect; Activity (LN-18 [19]): Active
6.37 | 5.58 | CCN(CCO)CCCCOc1ccc2c(-c3ccc(Br)cc3)nsc2c1.Cl | Stable | Stable | 5.14 | 4.66 | > 30 | 4.7 | 6.2 | 16.7 | Active | Active | 2 | Dose-dependent effect | 2.9 | 37 | 1.04 | 2.2 | 3.39 | 0.22 | IC50 (Lanosterol synthase): 0.0178 µM; Activity (LN-229 [10]): Dose-dependent effect; Activity (LN-229 [20]): Active; Activity (LN-18 [21]): Active; Activity [22]: Non-toxic; Activity [23]: 80%; Activity (LN-229 [14]): Active; Activity (LN-18 [15]): Active; Activity (LN-229 [16]): Active; Activity (LN-18 [17]): Active; Activity (LN-229 [24]): Active
4.22 | > 30 | CC(C)c1c(C(=O)Nc2ccccc2)c(-c2ccccc2)c(-c2ccc(F)cc2)n1CC[C@@H](O)C[C@@H](O)CC(=O)O [ATORVASTATIN CALCIUM] | – | – | > 30 | 1.97 | > 30 | 7.44 | 1.2 | > 30 | Active | Active | 6.9 | – | 8.1 | – | – | – | – | – | inhibition (LN-18 [26]): Dose-dependent effect; inhibition (LN-229 [27]): Dose-dependent effect

SMILES | IC50 (HeLa) [µM] | IC50 (MCF7) [µM] | Stability [1] | Stability [2] | IC50 (A549) [µM] | IC50 (KB) [µM] | IC50 (LNCaP) [µM] | IC50 [3] [µM] | IC50 [4] [µM] | IC50 (OVCAR) [µM] | inhibition (LN-18 [5]) | inhibition (LN-229 [6]) | IC50 [7] [µM] | Activity (LN-18 [8]) | IC50 [9] [µM] | permeability [18] [%] | IC50 (Caco-2) [µM] | IC50 (cells) [µM] | logD (physchem) | Papp (in vitro) [×10⁻⁶ cm/s] | also measured
C=CCN(C)CCCCCCOc1ccc(C(=O)c2ccc(Br)cc2)c(F)c1.O=C(O)/C=C/C(=O)O | 2.89 | 6.77 | Stable | Stable | 11.3 | 2.88 | > 30 | 5.26 | > 30 | > 30 | Active | Active | 6.1 | Dose-dependent effect | 8.8 | 20 | 2.99 | 3.8 | 3.92 | 0.12 | Activity (LN-229 [10]): Dose-dependent effect; Activity (LN-18 [11]): Active; Activity [12]: Toxic; Activity (LN-229 [13]): Active; Activity (LN-229 [14]): inactive; Activity (LN-18 [15]): inactive; Activity (LN-229 [16]): Active; Activity (LN-18 [17]): Active
C=CCN(C)CCCCCCOc1ccc2c(-c3ccc(Br)cc3)nsc2c1.O=C(O)/C=C/C(=O)O | 8.85 | 8.3 | Stable | Stable | 6.06 | 8.52 | 19.5 | 4.4 | 13.4 | > 30 | Active | Active | 7.6 | Dose-dependent effect | 5.2 | 40 | 1.97 | 4.8 | 3.43 | 0.57 | Activity (LN-18 [21]): Active; Activity (LN-229 [25]): Active
